Data as given in PMC11587516 (ACS Chemical Neuroscience, 2024).
Positions count from the first letter of the chain named. Like-named read-outs stand apart in the source and are kept apart here.

How the values were obtained:
hBGT1 Q299L = molecular target: T1, hBGT1 Q299L (Homo sapiens, UniProt P48065, Q299L); experiment: [3H]GABA uptake assay, hBGT1 mutant Q299L in tsA201 cells; format: cell-based
T1 construct: HA; expressed in transfected cells; host or cells: tsA201 cells (transformed HEK293), transient expression
T1 sequence (P48065 1-614 Q299L): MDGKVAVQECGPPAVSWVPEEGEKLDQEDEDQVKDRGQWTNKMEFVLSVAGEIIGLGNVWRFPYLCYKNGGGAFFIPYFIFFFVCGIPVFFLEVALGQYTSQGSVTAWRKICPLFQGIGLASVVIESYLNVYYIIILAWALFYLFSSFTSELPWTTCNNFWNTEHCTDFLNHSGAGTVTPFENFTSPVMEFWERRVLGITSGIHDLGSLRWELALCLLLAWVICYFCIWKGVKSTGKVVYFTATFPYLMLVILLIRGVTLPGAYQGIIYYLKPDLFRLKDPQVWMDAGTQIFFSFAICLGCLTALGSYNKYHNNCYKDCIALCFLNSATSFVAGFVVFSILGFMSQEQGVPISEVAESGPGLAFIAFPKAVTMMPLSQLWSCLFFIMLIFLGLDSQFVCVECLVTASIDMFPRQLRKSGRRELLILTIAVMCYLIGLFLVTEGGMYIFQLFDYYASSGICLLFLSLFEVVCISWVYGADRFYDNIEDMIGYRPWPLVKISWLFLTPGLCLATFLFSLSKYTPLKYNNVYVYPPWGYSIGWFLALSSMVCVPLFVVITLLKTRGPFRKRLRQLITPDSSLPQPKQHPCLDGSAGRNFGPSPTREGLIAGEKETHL
Description: (§1) To validate the molecular modeling, particularly the crucial interactions with the Glu52 and Gln299 residues, the activity of compound 9 was tested on the following hBGT1 mutants: E52A, E52Y, Q299L, and the double mutant E52A+Q299L (Figure 5 and Table 1).[14]
(§2) The CHO cells were placed in 96-well plates (approximately 50,000 cells/well) for about 24 h before the experiment. […] After incubation, cells were washed 3 times with 100 μL/well ice-cold assay buffer, 150 μL/well MicroScint20 (PerkinElmer) was subsequently added before the plate was shaken for at least 1 h. The radioactivity of each well of the plate was measured on a TopCount NXT scintillation counter. […] Data presented are the pooled data of at least three independent experiments with three technical replicates if not stated otherwise in figure legends. Concentration–response curves were fitted by nonlinear regression to the sigmoidal concentration–response model with GraphPad Prism v 9.0.
(§3) The tsA201 cell line (a transformed HEK293 cell line) has been described previously and was cultured accordingly.[20] The tsA201 cells used for transient expression of hBGT1 mutants were transfected with DNA constructs (8 μg per 10 cm plate) using 40 μL of PolyFect transfection reagent according to the manufacturer’s protocol (Qiagen). […]

[1] = system: SH-SY5Y neuroblastoma cells; settings: 1 mM MPP+, 24 h
Description: The model used mimics certain aspects of neurodegenerative diseases, where GABAergic dysfunction and neuronal death are prominent features. […] The neuroprotection studies were performed to determine the ability of compound 9 to prevent MPP^+ (1-methyl-4-phenylpyridinium) toxicity at a concentration of 1 mM, which was coincubated with compound 9 for 24 h. MPP^+ is a well-established neurotoxin that selectively damages neurons, making it a commonly used agent to model aspects of neurodegenerative conditions in vitro. It induces oxidative stress and mitochondrial dysfunction, leading to cell death. Cell viability was detected by a standard MTS assay.
Neuroprotection studies were performed according to the procedure described previously.[27] In brief, SH-SY5Y CRL-2266 (American Type Culture Collection, Manassas, VG) were seeded in microplate at a concentration of 2.5 × 10^4 cells/well in 100 μL of culture medium and cultured for 24 h at 37 °C and 5% CO2. […] Next, MPP^+ was added at a final concentration of 1 mM and the cells were placed in the incubator. After 24 h of the compound coincubation with MPP^+, the CellTiter 96 AQueous Nonradioactive Cell Proliferation Assay (MTS) was performed. The test was purchased from Promega (Madison, WI). The absorbance was measured using a microplate reader EnSpire (PerkinElmer, Waltham, MA) at 490 nm. All results were shown as mean ± SD. The statistical significances were calculated by GraphPad Prism 6.0 software.

hBGT1 E52Y = molecular target: T2, hBGT1 E52Y (Homo sapiens, UniProt P48065, E52Y); experiment: [3H]GABA uptake assay, hBGT1 mutant E52Y in tsA201 cells; format: cell-based
T2 construct: host or cells: tsA201 cells (transformed HEK293), transient expression
T2 sequence (P48065 1-614 E52Y): T1 sequence (P48065 1-614 Q299L) with E52Y, L299Q
Description: as §1, §2, §3

**Q.** Which results are given for `NC12CC(C(=O)O)(C1)C2` [Compound 9]?
**A.** IC50 (hBGT1 Q299L): 73.5 µM; decrease in activity compared with wild type hBGT1 (hBGT1 Q299L; Q299L vs wt): more than 2 fold; cell viability compared to MPP+ alone ([1]; 10 μM): increased cell viability; cell viability compared to MPP+ alone ([1]; 50 μM): significantly increased cell viability; IC50 (hBGT1 E52Y): > 1000 µM; activity at mutant compared with wild type hBGT1 (hBGT1 E52Y; E52Y vs wt): complete loss of activity
